Results: patent US20050009792A1, “(20S)-1alpha-hydroxy-2-methylene-19-nor-vitamin D3 and its uses” (priority 2003, published 2005)

How the values were obtained:
[1] = test system: intestinal calcium transport; assay: Intestinal calcium transport in rats on low calcium diet; format: in vivo, Sprague-Dawley rats; conditions: for Ca transport S/M (mean ± SEM): daily for 7 days, male weanling rats, 0.02% Ca diet
Protocol: Intestinal calcium transport was carried out as described by Penman et al (Biochemistry 29, 190-196,1990).
(§1) Male, weanling Sprague-Dawley rats were placed on Diet 11 (0.47% Ca) diet+AEK for 11 days, followed by Diet 11 (0.02% Ca)+AEK for 31 days. Dosing (i.p.) began 7 days prior to sacrifice. Doses were given on a daily basis, 24 hours apart. The first 10 cm of the intestine was collected for gut transport studies and serum was collected for bone Ca mobilization analysis.

[2] = test system: bone calcium mobilization; assay: Serum calcium (bone calcium mobilization) in rats on low calcium diet; format: in vivo, Sprague-Dawley rats; conditions: for Serum Ca (mean ± SEM): daily for 7 days, male weanling rats, 0.02% Ca diet
Protocol: as §1

[3] = biological target: T1, vitamin D pig intestinal nuclear receptor (Sus scrofa, UniProt A3RGC1); assay: Competitive binding of [3H]-1,25-(OH)2-D3 to the porcine intestinal vitamin D receptor
T1 construct: from tissue; host or cells: pig intestine (nuclear receptor preparation)
T1 sequence (A3RGC1 1-427): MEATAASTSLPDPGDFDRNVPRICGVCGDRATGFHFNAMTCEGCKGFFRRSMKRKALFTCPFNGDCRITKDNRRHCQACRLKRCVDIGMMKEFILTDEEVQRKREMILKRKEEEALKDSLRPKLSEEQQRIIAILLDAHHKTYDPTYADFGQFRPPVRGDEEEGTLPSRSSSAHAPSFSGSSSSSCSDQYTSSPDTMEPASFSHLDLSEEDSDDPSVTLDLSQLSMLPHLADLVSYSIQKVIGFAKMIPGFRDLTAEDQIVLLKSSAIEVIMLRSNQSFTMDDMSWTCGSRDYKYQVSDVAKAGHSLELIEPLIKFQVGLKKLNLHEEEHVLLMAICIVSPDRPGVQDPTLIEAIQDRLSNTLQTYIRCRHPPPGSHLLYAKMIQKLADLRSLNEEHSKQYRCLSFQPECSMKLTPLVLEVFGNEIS
Protocol: FIG. 1 is a graph illustrating the relative activity of (20S)-1α-hydroxy-2-methylene-19-nor-vitamin D3 and 1α,25-dihydroxyvitamin D3 to compete for binding of [^3H]-1,25-(OH)2-D3 to the vitamin D pig intestinal nuclear receptor; and
Competitive binding of the analog to the porcine intestinal receptor was carried out by the method described by Dame et al. (Biochemistry 25, 4523-4534, 1986).

HL-60 cells = assay: Differentiation of HL-60 promyelocytes into monocytes; format: cell-based; conditions: FIG. 2
Protocol: FIG. 2 is a graph illustrating the percent HL-60 cell differentiation as a function of the concentration of (20S)-1α-hydroxy-2-methylene-19-nor-vitamin D3 and of 1,25-dihydroxyvitamin D3
The differentiation of HL-60 promyelocytic into monocytes was determined as described by Ostrem et al (J. Biol. Chem. 262, 14164-14171, 1987).

[4] = biological target: T1, vitamin D pig intestinal nuclear receptor; conditions: Ostrem et al. J. Biol. Chem. 262, 14164-14171, 1987; cited from earlier work

Structure (SMILES): C=C1/C(=C\C=C2/CCC[C@]3(C)[C@@H]([C@H](C)CCCC(C)(C)O)CC[C@@H]23)C[C@@H](O)C[C@@H]1O [1α,25-(OH)2D3, 1α,25-dihydroxyvitamin D3, reference compound]
- Ca transport S/M (mean ± SEM) ([1]; 260 pmol/day i.p.): 7.7 ± 0.52
- Serum Ca (mean ± SEM) ([2]; 260 pmol/day i.p.): 6.25 ± 0.19

Structure (SMILES): C=C1[C@H](O)CC(=C/C=C2\CCC[C@@]3(C)C2CCC3[C@@H](C)CCCC(C)C)C[C@H]1O (stereo partly drawn) [(20S)-1α-(OH)-2-methylene-19-nor-D3, (20S)-1α-hydroxy-2-methylene-19-nor-vitamin D3]
- ability to bind the vitamin D receptor relative to 1,25-dihydroxyvitamin D3 ([3]; FIG. 1): only a little less activity than 1,25(OH)2D3
- ability to bind the vitamin D receptor relative to 1,25-dihydroxyvitamin D3 ([3]; FIG. 1, listed as 2-Methylene-19-nor-(20S)-1α-hydroxyvitamin D3): only one-tenth that of 1,25-dihydroxyvitamin D3
- potency on HL-60 differentiation relative to 1,25-(OH)2D3 (HL-60 cells; listed as (20S)-1α-Hydroxy-2-methylene-19-nor-vitamin D3): more active than 1,25-(OH)2D3
- potency on HL-60 differentiation relative to 1,25-(OH)2D3 (HL-60 cells; listed as (20S)-1α-hydroxy-2-methylene-19-nor-vitamin D3): more potent than 1,25-(OH)2D3
- Ca transport S/M (mean ± SEM) ([1]; 130 pmol/day i.p.): 10.1 ± 0.68
- Ca transport S/M (mean ± SEM) ([1]; 260 pmol/day i.p.): 10.0 ± 0.59
- activity in stimulating intestinal calcium transport relative to 1,25-(OH)2D3 ([1]; statement in words on Table 1): higher activity as compared to that of 1,25-(OH)2D3
- Serum Ca (mean ± SEM) ([2]; 130 pmol/day i.p.): 9.63 ± 0.12
- Serum Ca (mean ± SEM) ([2]; 260 pmol/day i.p.): 12.60 ± 0.54
- bone calcium mobilization activity relative to 1,25-(OH)2D3 ([2]; statement in words on Table 1): higher bone calcium mobilization activity, as compared to 1,25-(OH)2D3

Structure (SMILES): C=C1/C(=C\C=C2/CCC[C@]3(C)[C@@H]([C@H](C)CCCC(C)C)CC[C@@H]23)C[C@@H](O)C[C@@H]1O [1α-hydroxyvitamin D3]
- decrease in binding activity resulting from lack of a 25-hydroxyl [4]: 100 fold
